Assay results as given in patent US20180244611A1, “Modulators of the Cystic Fibrosis Transmembrane Conductance Regulator Protein and Methods of Use” (AbbVie S.à.r.l., priority 2017, published 2018).

Key:
F508delCFTR [1] = target: T1, F508delCFTR (Homo sapiens, UniProt P13569, DEL508-508); assay: Cell Surface Expression-Horse Radish Peroxidase (CSE-HRP) assay, test compound without co-corrector; format: cell-based; settings: for Emax: maximum at any tested concentration, normalized to positive control, without co-corrector; for EC50: test compound without co-corrector;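 as to Emax: percent of on-plate 2 µM positive control corrector response over DMSO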
T1 construct: expressed in transfected cells; host or cells: CFBE41o- human lung-derived epithelial cells (CFBE41o-F508delCFTR-HRP), doxycycline-inducible
T1 sequence (P13569 with tags, fused parts or gaps DEL508-508): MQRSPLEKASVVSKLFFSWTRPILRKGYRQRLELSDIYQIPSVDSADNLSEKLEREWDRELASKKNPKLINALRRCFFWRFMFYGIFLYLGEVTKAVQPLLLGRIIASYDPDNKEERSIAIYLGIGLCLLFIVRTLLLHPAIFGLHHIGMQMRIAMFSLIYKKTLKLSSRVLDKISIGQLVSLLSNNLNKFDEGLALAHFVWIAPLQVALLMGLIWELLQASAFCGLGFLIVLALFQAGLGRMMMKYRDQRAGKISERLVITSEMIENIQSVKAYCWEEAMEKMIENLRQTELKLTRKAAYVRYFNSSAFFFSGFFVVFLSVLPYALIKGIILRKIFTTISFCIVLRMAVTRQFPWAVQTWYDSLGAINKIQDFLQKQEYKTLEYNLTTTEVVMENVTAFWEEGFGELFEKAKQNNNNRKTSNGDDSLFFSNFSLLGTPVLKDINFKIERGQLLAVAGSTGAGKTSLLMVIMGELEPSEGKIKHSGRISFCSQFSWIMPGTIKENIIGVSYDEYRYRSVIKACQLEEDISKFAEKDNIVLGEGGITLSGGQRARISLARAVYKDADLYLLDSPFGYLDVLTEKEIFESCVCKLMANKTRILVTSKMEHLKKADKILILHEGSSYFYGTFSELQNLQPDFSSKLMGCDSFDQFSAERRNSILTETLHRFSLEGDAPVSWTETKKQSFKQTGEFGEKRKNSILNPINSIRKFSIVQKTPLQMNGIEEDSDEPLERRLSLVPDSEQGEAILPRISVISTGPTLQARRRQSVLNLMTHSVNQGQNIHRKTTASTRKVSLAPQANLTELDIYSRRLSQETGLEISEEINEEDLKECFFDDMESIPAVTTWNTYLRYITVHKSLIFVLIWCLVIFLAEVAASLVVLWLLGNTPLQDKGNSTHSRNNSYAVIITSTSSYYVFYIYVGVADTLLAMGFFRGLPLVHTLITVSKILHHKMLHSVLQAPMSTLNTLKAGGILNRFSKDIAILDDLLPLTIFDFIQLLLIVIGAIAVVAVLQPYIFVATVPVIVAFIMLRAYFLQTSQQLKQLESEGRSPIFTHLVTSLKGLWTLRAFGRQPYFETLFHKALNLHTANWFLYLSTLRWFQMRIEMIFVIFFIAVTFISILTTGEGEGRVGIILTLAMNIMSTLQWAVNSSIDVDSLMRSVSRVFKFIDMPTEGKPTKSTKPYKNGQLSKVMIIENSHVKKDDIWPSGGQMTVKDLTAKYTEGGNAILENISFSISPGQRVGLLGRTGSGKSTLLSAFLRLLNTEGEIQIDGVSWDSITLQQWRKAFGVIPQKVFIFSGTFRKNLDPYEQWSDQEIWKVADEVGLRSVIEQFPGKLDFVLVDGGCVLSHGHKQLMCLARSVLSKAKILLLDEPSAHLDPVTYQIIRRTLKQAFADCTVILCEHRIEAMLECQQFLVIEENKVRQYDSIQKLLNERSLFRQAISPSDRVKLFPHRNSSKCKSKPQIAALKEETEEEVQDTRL
How it was run: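 CFBE41o- cells expressing F508delCFTR with HRP in the fourth exofacial loop, induced with 0.5 μg/mL doxycycline for 72 h at 37° C, then exposed to compound alone for 18-24 h at 33° C, 8-point 3-fold series from 20 μM. Surface HRP read by luminol luminescence, normalized to positive corrector control versus DMSO; EC50 from variable-slope sigmoidal fit of three replicate plates.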

F508delCFTR [2] = target: T1, F508delCFTR; assay: Cell Surface Expression-Horse Radish Peroxidase (CSE-HRP) assay, test compound with co-corrector; format: cell-based; settings: with 2 μM co-corrector; for Maximum % activity (with co-corrector): maximum at any tested concentration, normalized to positive control;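 as to Maximum % activity (with co-corrector): percent of 2 µM positive control corrector over DMSO; co-corrector is that same compound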
How it was run: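 CFBE41o- cells expressing F508delCFTR with HRP in the fourth exofacial loop, induced with 0.5 μg/mL doxycycline for 72 h, then treated 18-24 h at 33° C. with compound (8 points, top 20 μM, 3-fold) plus 2 μM co-corrector. Surface HRP read by luminol luminescence; activity normalised to positive control, EC50 from variable-slope sigmoidal fit.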

Emax (F508delCFTR [1]) [%]	EC50 (F508delCFTR [1]) [µM]	Maximum % activity (with co-corrector) (F508delCFTR [2])	EC50 (F508delCFTR [2]) [µM]	SMILES
< 50	≥ 10	++ (≥150 and <350)	3 to 10	COc1cccc2c1CCC2C(=O)NS(=O)(=O)c1ccccc1F (centres unmarked) [II-38]
< 50	3 to 10	++ (≥150 and <350)	3 to 10	COc1cccc2c1CCC2C(=O)NS(=O)(=O)c1ccccc1Br (centres unmarked) [II-39]
50 to 150	3 to 10	++ (≥150 and <350)	3 to 10	Cc1ccccc1S(=O)(=O)NC(=O)C1CCc2c(OC(C)C)cccc21 (centres unmarked) [II-40]
50 to 150	3 to 10	+++ (≥350)	3 to 10	COc1ccc(Br)c2c1CCC2C(=O)NS(=O)(=O)c1ccccc1C (centres unmarked) [II-41]
50 to 150	3 to 10	++ (≥150 and <350)	3 to 10	COc1cc(-c2cccc3c2CCC3C(=O)NS(=O)(=O)c2ccccc2C)ccn1 (centres unmarked) [II-42]
50 to 150	3 to 10	++ (≥150 and <350)	3 to 10	COc1cccc2c1CCCC2C(=O)NS(=O)(=O)c1cccc2cccnc12 (centres unmarked) [II-43]
50 to 150	3 to 10	+++ (≥350)	3 to 10	COc1ccc2c(c1)CC[C@@]2(C)C(=O)NS(=O)(=O)c1cccc2ccccc12 [II-44]
≥ 150	3 to 10	+++ (≥350)	3 to 10	COc1ccc2c(c1)CC[C@]2(C)C(=O)NS(=O)(=O)c1cccc2ccccc12 [II-45]
50 to 150	3 to 10	+++ (≥350)	3 to 10	COc1cccc2c1CC[C@]2(C)C(=O)NS(=O)(=O)c1cccc2ccccc12 [II-46]
50 to 150	3 to 10	+++ (≥350)	3 to 10	COc1cccc2c1CC(C(=O)NS(=O)(=O)c1cccc3ccccc13)C2 (centres unmarked) [II-48]
≥ 150	3 to 10	+++ (≥350)	< 3	CC1(C(=O)NS(=O)(=O)c2cccc3ccccc23)CCc2ccc(OC(F)(F)F)cc21 (centres unmarked) [II-49]
< 50	3 to 10	++ (≥150 and <350)	3 to 10	O=C(NS(=O)(=O)c1cccc2ccccc12)C1CCCc2c(O)ccc(Br)c21 (centres unmarked) [II-50]
50 to 150	3 to 10	+++ (≥350)	3 to 10	COc1ccc2c(c1OC)CCCC2C(=O)NS(=O)(=O)c1cccc2ccccc12 (centres unmarked) [II-51]
50 to 150	3 to 10	+++ (≥350)	3 to 10	O=C(NS(=O)(=O)c1cccc2ccccc12)C1CCCc2c1ccc1c2OCCO1 (centres unmarked) [II-52]
50 to 150	3 to 10	+++ (≥350)	3 to 10	COc1cc2c(cc1OC)C(C(=O)NS(=O)(=O)c1cccc3ccccc13)CCC2 (centres unmarked) [II-53]
< 50	< 3	++ (≥150 and <350)	< 3	CCC1(C(=O)NS(=O)(=O)c2ccccc2Cl)CCc2c(Cl)cccc21 (centres unmarked) [II-54]
< 50	≥ 10	+ (<150)	≥ 10	CCC1(C(=O)NS(=O)(=O)c2ccccc2OC)CCc2c(Cl)cccc21 (centres unmarked) [II-55]
< 50	< 3	++ (≥150 and <350)	< 3	CCC1(C(=O)NS(=O)(=O)c2cc(C)ccc2C(C)C)CCc2c(Cl)cccc21 (centres unmarked) [II-56]
< 50	< 3	++ (≥150 and <350)	< 3	CCC1(C(=O)NS(=O)(=O)c2cccc(Cl)c2COC)CCc2c(Cl)cccc21 (centres unmarked) [II-57]
< 50	< 3	++ (≥150 and <350)	< 3	CCC1(C(=O)NS(=O)(=O)c2ccccc2F)CCc2c(Cl)cccc21 (centres unmarked) [II-58]
< 50	< 3	++ (≥150 and <350)	< 3	CCC1(C(=O)NS(=O)(=O)c2ccccc2Oc2ccccc2)CCc2c(Cl)cccc21 (centres unmarked) [II-59]
< 50	≥ 10	+ (<150)	≥ 10	CCC1(C(=O)NS(=O)(=O)c2ccccc2OC(F)(F)F)CCc2c(Cl)cccc21 (centres unmarked) [II-60]

Emax (F508delCFTR [1]) [%]	EC50 (F508delCFTR [1]) [µM]	Maximum % activity (with co-corrector) (F508delCFTR [2])	EC50 (F508delCFTR [2]) [µM]	SMILES
< 50	≥ 10	+ (<150)	≥ 10	CCC1(C(=O)NS(=O)(=O)c2ccccc2OC(F)F)CCc2c(Cl)cccc21 (centres unmarked) [II-61]
< 50	≥ 10	+ (<150)	≥ 10	CCC1(C(=O)NS(=O)(=O)c2cc(C)ccc2C)CCc2c(Cl)cccc21 (centres unmarked) [II-62]
< 50	< 3	++ (≥150 and <350)	< 3	CCC1(C(=O)NS(=O)(=O)c2ccccc2OCCOC)CCc2c(Cl)cccc21 (centres unmarked) [II-63]
< 50	< 3	++ (≥150 and <350)	< 3	CCC1(C(=O)NS(=O)(=O)c2ccccc2-c2ccccc2)CCc2c(Cl)cccc21 (centres unmarked) [II-64]
< 50	3 to 10	++ (≥150 and <350)	3 to 10	CCC1(C(=O)NS(=O)(=O)c2ccc3ccccc3c2)CCc2c(Cl)cccc21 (centres unmarked) [II-65]
50 to 150	< 3	++ (≥150 and <350)	< 3	CCC1(C(=O)NS(=O)(=O)c2ccccc2)CCc2c(Cl)cccc21 (centres unmarked) [II-66]
< 50	≥ 10	+ (<150)	≥ 10	CCC1(C(=O)NS(=O)(=O)c2cccc3nsnc23)CCc2c(Cl)cccc21 (centres unmarked) [II-67]
< 50	3 to 10	++ (≥150 and <350)	< 3	O=C(NS(=O)(=O)c1cccc2ccccc12)C1CCc2ccccc21 (centres unmarked) [II-68]
50 to 150	< 3	+++ (≥350)	< 3	O=C(NS(=O)(=O)c1cccc2ccccc12)C1(CC2CCOC2)CCc2c(Cl)cccc21 (centres unmarked) [II-69]
50 to 150	< 3	++ (≥150 and <350)	< 3	O=C(NS(=O)(=O)c1cccc2ccccc12)C1(CCn2cccn2)CCc2c(Cl)cccc21 (centres unmarked) [II-70]
50 to 150	< 3	++ (≥150 and <350)	< 3	COc1cc(CC2(C(=O)NS(=O)(=O)c3cccc4ccccc34)CCc3c(Cl)cccc32)ccn1 (centres unmarked) [II-72]
< 50	≥ 10	+ (<150)	≥ 10	CCC1(C(=O)NS(=O)(=O)c2cccc3c2OCCO3)CCc2c(Cl)cccc21 (centres unmarked) [II-74]
≥ 150	3 to 10	+++ (≥350)	< 3	O=C(NS(=O)(=O)c1cccc2ccccc12)C1CCc2c(Br)cccc21 (centres unmarked) [II-75]
< 50	< 3	++ (≥150 and <350)	< 3	CCC1(C(=O)NS(=O)(=O)c2ccc(Br)c3ccccc23)CCc2c(Cl)cccc21 (centres unmarked) [II-76]
< 50	< 3	++ (≥150 and <350)	< 3	CCC1(C(=O)NS(=O)(=O)c2ccc(F)c3ccccc23)CCc2c(Cl)cccc21 (centres unmarked) [II-77]
50 to 150	< 3	+++ (≥350)	< 3	CCC1(C(=O)NS(=O)(=O)c2cccc3c(Br)cccc23)CCc2c(Cl)cccc21 (centres unmarked) [II-78]
50 to 150	< 3	++ (≥150 and <350)	< 3	CCC1(C(=O)NS(=O)(=O)c2cccc3c2CCCC3)CCc2c(Cl)cccc21 (centres unmarked) [II-79]
< 50	≥ 10	++ (≥150 and <350)	3 to 10	CCC1(C(=O)NS(=O)(=O)c2ccc(C3CCC3)c3ccccc23)CCc2c(C3CCC3)cccc21 (centres unmarked) [II-82]
50 to 150	3 to 10	++ (≥150 and <350)	3 to 10	CCC1(C(=O)NS(=O)(=O)c2cccc3c(C4CCC4)cccc23)CCc2c(C3CCC3)cccc21 (centres unmarked) [II-83]
50 to 150	3 to 10	++ (≥150 and <350)	3 to 10	O=C(NS(=O)(=O)c1cccc2ccccc12)C1CCCc2c(OCC3CCCCC3)ccc(Br)c21 (centres unmarked) [II-84]
< 50	3 to 10	++ (≥150 and <350)	3 to 10	COc1cccc(COc2ccc(Br)c3c2CCCC3C(=O)NS(=O)(=O)c2cccc3ccccc23)c1 (centres unmarked) [II-85]
< 50	≥ 10	++ (≥150 and <350)	3 to 10	COc1cccc(COc2ccc(Br)c3c2CCCC3C(=O)N(Cc2cccc(OC)c2)S(=O)(=O)c2cccc3ccccc23)c1 (centres unmarked) [II-86]
